IC50 data for 2 compounds are collected here from ChEMBL document CHEMBL1201862, “PubChem BioAssay data set” (2004).

Activity calls are given as the source filed them. Cut-off read from the data, not from the text of the source: actives have a measured IC50 and inactives only a lower limit.

The target of this assay is Envelope glycoprotein gp160 (Human immunodeficiency virus 1, UniProt Q6QLK5). Put plainly: cell-free HIV fusion peptide-binding blockers – biochemical, uHTS, fluorescence dequenching, […] (AID 1986).
Chain of Envelope glycoprotein gp160 (Q6QLK5 whole entry, the tested form may be a part): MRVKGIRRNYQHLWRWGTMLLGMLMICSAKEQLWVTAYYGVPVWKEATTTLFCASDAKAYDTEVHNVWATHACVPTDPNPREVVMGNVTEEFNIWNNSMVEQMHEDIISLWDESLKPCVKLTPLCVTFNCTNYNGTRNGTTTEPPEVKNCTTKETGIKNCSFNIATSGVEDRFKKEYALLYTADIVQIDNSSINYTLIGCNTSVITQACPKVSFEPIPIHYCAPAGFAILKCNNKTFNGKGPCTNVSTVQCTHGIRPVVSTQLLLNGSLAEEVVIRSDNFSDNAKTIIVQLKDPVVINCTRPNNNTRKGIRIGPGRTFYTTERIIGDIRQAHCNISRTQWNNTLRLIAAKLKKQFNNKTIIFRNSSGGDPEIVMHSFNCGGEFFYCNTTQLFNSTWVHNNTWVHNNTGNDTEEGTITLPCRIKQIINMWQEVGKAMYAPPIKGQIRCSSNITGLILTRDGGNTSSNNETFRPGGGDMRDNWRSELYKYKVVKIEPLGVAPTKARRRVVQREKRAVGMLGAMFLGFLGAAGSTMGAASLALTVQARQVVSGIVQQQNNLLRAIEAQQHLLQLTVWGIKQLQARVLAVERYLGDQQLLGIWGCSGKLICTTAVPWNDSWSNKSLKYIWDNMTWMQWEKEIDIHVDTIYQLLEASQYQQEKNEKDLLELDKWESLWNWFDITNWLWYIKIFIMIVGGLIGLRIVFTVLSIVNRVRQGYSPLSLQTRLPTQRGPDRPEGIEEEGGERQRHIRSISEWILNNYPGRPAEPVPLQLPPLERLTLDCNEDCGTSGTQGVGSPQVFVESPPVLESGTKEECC

For `O=[N+]([O-])c1cc(Cl)cc(/C=N/NC(=S)Nc2cc(S(=O)(=O)N3CCOCC3)ccc2Cl)c1O`, the half-maximal inhibitory concentration (IC50) (as a rule, the concentration that gives 50% inhibition) is 9.41 µM (active). The result for `N#Cc1c(-c2ccccc2)nc(SCc2cccc(C(F)(F)F)c2)[nH]c1=O` reads 10.4 µM (active).
